Where two headings read alike, the source gives them in different places.
Legend:
[1] = conscious rats, cited from earlier work; for EC(50) nmol/kg for inhibition of gastric emptying: subcutaneous 5 min before gavage
[2] = test system: pancreatic CCK receptor; conditions: cited from earlier work
[3] = type: in vivo, NIH/Swiss mice
Description: (§1) In FIG. 3A, bars represent mean±sd, n=6-10. […] Gavage (1.5 g/kg) was given at t=0, Sample was taken at t=30 min. […] In FIG. 3B, points represent mean±sem, n=8-15.
Peptide was injected IP at t=−5 minutes into 4-hour fasted NIH/Swiss female mice. […] In FIG. 17 points represent mean+/−sem. […] Samples were taken at t=60, t=120 and t=180.

[4] = biological target: human GIP receptor; test: biochemical; type: binding; conditions: read-out: GIP RBA
[5] = Gastric emptying (FIG. 23A); conditions: in vivo
[6] = type: in vivo, db/db mice; conditions: for glucose lowering in a diabetic mouse model (FIG. 4): db/db mice, IP
Description: Peptide was injected IP at t=0 immediately following baseline sample into 2-hour fasted db/db mice.

[7] = Intracellular calcium levels (FIG. 23B)
[8] = Telemetry of circulatory effects in conscious rats; conditions: 80 nmol/kg intravenous
[9] = for Mouse Food Intake, % basal: dose per compound (4.8 to 25 nmol/Kg)
[10] = biological target: cardiomyocyte Gs-coupled receptors; test: cAMP production in neonatal cardiomyocytes (HTRF, Gs-coupled receptor activation); type: cell-based, rat; conditions: for EC50: neonatal rat cardiomyocytes
Description: Activation of cardiomyocyte Gs- and Gi-coupled receptors was determined as a measure of cAMP production.
Neonatal cardiomyocytes were isolated using a commercially available system. […] Sprague Dawley neonatal rats (1-2 days old) were decapitated and the beating heart dissected out into digestion buffer (Cellutron D1 buffer) to dissociate cells. […] The resuspended cells incubated in buffer (Cellutron D3 buffer) for sufficient time to allow optimal dispersion and minimize the need for pipetting to break up clumps. Cells released from the first 2 digestions were discarded since a significant portion of these is red blood cells. Resuspended cells were filtered and allowed to pre-plate for 1 hour on plastic in an incubator in NS media (Cellutron, N.J.) in order to remove fibroblasts. After 1 hour of pre-plating, floating cells are removed and the flask rinsed with NS media. The floating cells and the cells in the rinse media were combined and counted. Residual red blood cells, which are smaller that the cardiac myocytes, were not counted.
At Day 1, the NS media was replaced with fresh NS media.
Dose response was determined.
For Gs assays the positive control was 10 uM forskolin and negative control was buffer. For Gi assays the positive control was buffer and the negative control was 10 uM forskolin.

[11] = type: in vivo, NIH/Swiss mice; remark: listed apart in the source
Description: as §1
Points represent mean±sem.

[12] = Body weight gain in diet-induced-obesity (DIO) mice; type: in vivo, C57BL/6 mice
[13] = Intravenous glucose tolerance test (IVGTT), i.v. infusion; type: in vivo, rat; conditions: for insulin levels prior to the glucose challenge / insulinotropic response to an intravenous glucose challenge (IVGTT assay): 100 pmol/kg/min infusion, rats
Description: In the typical IVGTT assays the test sample was administered by IV infusion. The IV infusion of sample was initiated at t=−30 min and continued through t=90. IV glucose was given at t=0. To determine a duration of action using the IVGTT assay, the sample was injected SC as a single injection at one time point indicated (e.g., t=−240, −120, −60 or −30) prior to administration of glucose. IV glucose was given at t=0.
As described, fed, isoflurane anesthetized HSD male rats were intubated and cannulated via femoral artery and vein and allowed to stabilize for 1 hour. […] At t=0, an i.v. bolus of 5.7 mmol/kg D-glucose was administered over 2 minutes. Samples for glucose measurement and insulin concentrations were taken at various time points before and after (0 to 90 minutes) glucose infusion.

[14] = Body composition in DIO mice; type: in vivo, C57BL/6J mice
Excerpt: During the study, the mice can continue to eat their high-fat diet. Water can be provided ad libitum throughout the study.
DIO mice can be implanted with subcutaneous (SC) intrascapular osmotic pumps to deliver either vehicle (50% dimethylsulfoxide (DMSO) in water) or a compound of the invention. […] Body weights and food intake can be measured over regular intervals throughout the study periods. Respiratory quotient (RQ, defined as CO2 production÷O2 consumption) and metabolic rate can be determined using whole-animal indirect calorimetry (Oxymax, Columbus Instruments, Columbus, Ohio). The mice can be euthanized by isoflurane overdose, and an index of adiposity (bilateral epididymal fat pad weight) measured. Moreover, prior to determination of epididymal weight, body composition (lean mass, fat mass) for each mouse can be analyzed using a Dual Energy X-ray Absorptiometry (DEXA) instrument per manufacturer's instructions (Lunar Piximus, GE Imaging System).

[15] = Glucose in rats (summary table); type: in vivo, rat
[16] = normal men, infusion; cited from earlier work
[17] = IVGTT duration of action assay (single SC injection before glucose); type: in vivo, rat
Description: To determine a duration of action using the IVGTT assay, the sample was injected SC as a single injection at one time point indicated (e.g., t=−240, −120, −60 or −30) prior to administration of glucose. IV glucose was given at t=0.

[18] = 30, 60 90 μg, men with IDDM; cited from earlier work
[19] = 30 minutes, read-out: EC50 of cAMP production (this experiment, FIGS. 18A/18B)
[20] = read-out: EC50 of cardiomyocyte Gs-coupled receptor activation (three independent experiments)

DY(SO3)MGWMDF [CCK-8]
EC(50) nmol/kg for inhibition of gastric emptying [1]: 12.8 nmol/kg | potency of binding displacement relative to unsulfated CCK-8 or CCK-4 [2]: 1000-5000

CC[C@H](C)[C@H](NC(=O)[C@H](CO)NC(=O)[C@H](Cc1ccc(O)cc1)NC(=O)[C@H](CC(=O)O)NC(=O)[C@H](CO)NC(=O)[C@@H](NC(=O)[C@H](Cc1ccccc1)NC(=O)[C@@H](NC(=O)CNC(=O)[C@H](CCC(=O)O)NC(=O)[C@@H](C)NC(=O)[C@@H](N)Cc1ccc(O)cc1)[C@@H](C)O)[C@@H](C)CC)C(=O)N[C@@H](C)C(=O)N[C@@H](CCSC)C(=O)N[C@@H](CC(=O)O)C(=O)N[C@@H](CCCCN)C(=O)N[C@H](C(=O)N[C@@H](Cc1c[nH]cn1)C(=O)N[C@@H](CCC(N)=O)C(=O)N[C@@H](CCC(N)=O)C(=O)N[C@@H](CC(=O)O)C(=O)N[C@@H](Cc1ccccc1)C(=O)N[C@H](C(=O)N[C@@H](CC(N)=O)C(=O)N[C@@H](Cc1c[nH]c2ccccc12)C(=O)N[C@@H](CC(C)C)C(=O)N[C@@H](CC(C)C)C(=O)N[C@@H](C)C(=O)N[C@@H](CCC(N)=O)C(=O)N[C@@H](CCCCN)C(=O)N[C@@H](CO)C(=O)NCC(=O)N[C@@H](C)C(=O)N1CCC[C@H]1C(=O)N1CCC[C@H]1C(=O)N1CCC[C@H]1C(=O)N[C@@H](CO)C(N)=O)C(C)C)[C@@H](C)CC [0601GIP4192]
OGTT/GL (%) ([3]; 350 nmol/kg): −16% | IC50 [4]: 7 nM

YAEGTFISDYSIAMDKIHQQDFVNWLLAQKGKKNDWKHNITQ-OH [GIP, reference compound]
Gastric Emptying [5]: not active | glucose lowering in a diabetic mouse model (FIG. 4) [6]: modest and wanes over time | OGTT ([3]; mice, effect on glucose): decreases | OGTT response ([3]; mouse, in vivo): −10% | iCa [7]: not active | dP/dt [8]: increased dP/dt similarly | effect on mean arterial pressure [8]: had no effect | inhibition of gastric emptying at doses of 100 μg [1]: either weakly active or inactive | food intake ([9]; mice, peptide injected IP): not active | food intake ([9]; mouse, in vivo, ip): did not acutely inhibit food intake | EC50 [10, 19]: 9.1 nM | EC50 [10, 20]: 15.6 nM | Glucose mice ([11]; mice): weak | basal glucose lowering (% maximal decrease) ([11]; mouse, in vivo): 0% | BWt (mDIO) ([12]; DIO mice): not active | weight loss / body weight change in diet-induced-obese mice ([12]; mouse, in vivo): did not cause weight loss | insulin levels prior to the glucose challenge [13]: significant rise in insulin levels | insulinotropic response to an intravenous glucose challenge (IVGTT assay) [13]: significant enhancement of the insulinotropic response | Body Comp (mDIO) ([14]; DIO mice): No effect on lean mass | Glucose rats [15]: not active

BNP: brain natriuretic peptide
increase in sodium excretion [16]: 2 fold | reduction in plasma renin, angiotensin II and aldosterone secretion [16]: 50%

KCNTATCATQRLANFLVRSSNNLGPVLPPTNVGSNTY [rat amylin]
EC(50) nmol/kg for inhibition of gastric emptying [1]: 0.23 nmol/kg | Mouse Food Intake, % basal ([9]; 30 min): −58 % basal | Mouse Food Intake, % basal ([9]; 60 min): −40 % basal | Mouse Food Intake, % basal ([9]; 120 min): −36.5 % basal | Mouse Food Intake, % basal ([9]; 180 min): −35.5 % basal | food intake ([9]; mouse, in vivo, ip): significant decrease in food intake within 30 min

HAEGTFTSDVSSYLEGQAAKEFIAWLVKGR [GLP-1]
cAMP activity in cardiomyocytes [10]: very low to no significant activity

Y(D-Ala)EGTFISDYSIAMDKIHQQDFVNWLLAQKPSSGAPPPS-NH2 [Compound 0601GIP3794]
Basal Glucose Lowering in db/db ([6]; 80 nmol/kg, t = 120): −33%, 80 nmol/kg, | glucose lowering in a diabetic mouse model (FIG. 4) [6]: pronounced and long-acting effect in lowering glucose | OGTT/GL (%) ([3]; 10 nmol/kg): −17% 10 nmol/kg | OGTT/GL (%) ([3]; 350 nmol/kg): −21% 350 nmol/kg, | OGTT (compared to 0601GIP3794) ([3]; mouse, in vivo): =794 | OGTT ED50 ([3]; mouse, in vivo): ED50 ~2 nmol/kg, | OGTT response ([3]; mouse, in vivo): −21% | dP/dt [8]: increased dP/dt similarly | effect on heart rate [8]: transient relative to GIP | effect on mean arterial pressure [8]: decreased mean arterial pressure | systolic and diastolic pressures [8]: sustained lowering of systolic and diastolic pressures | Duration of action in assay (insulin AUC 0-30 min) ([17]; SC inj T = −30 min): 198 | Duration of action in assay (insulin AUC 0-30 min) ([17]; SC inj T = −60 min): 159 | Duration of action in assay (insulin AUC 0-30 min) ([17]; SC inj T = −120 min): 204 | Duration of action in assay (insulin AUC 0-30 min) ([17]; SC inj T = −240 min): 79 | DOA (duration of action, compared to 0601GIP3794) ([17]; time not stated): =794 | food intake ([9]; mouse, in vivo, ip): did not acutely inhibit food intake | EC50 [10, 19]: 11.7 nM | EC50 [10, 20]: 29.8 nM | Basal Glucose Lowering at 80 nmol/Kg ([11]; 80 nmol/kg, AUC180): −9%, AUC180 | Basal Glucose Lowering at Peptide Conc. of 80 nmol/kg ([11]; 80 nmol/kg, AUC240): −7 to −20%, | glucose lowering profile over 240 min (FIGS. 8-10) ([11]; 2-hour fasted NIH/Swiss mice, IP): gradually increasing activity that peaks at t=120 min, and is more sustained than native GIP or its D-Ala2 version | glucose lowering in normal mice (FIGS. 3A and 3B) ([11]; NIH/Swiss mice, IP): significantly more efficacious than full length GIP | GL (glucose lowering, compared to 0601GIP3794) ([11]; mouse, in vivo): =794 | basal glucose lowering (% maximal decrease) ([11]; mouse, in vivo): −20% | insulin levels prior to the glucose challenge [13]: significant rise in insulin levels | insulinotropic response to an intravenous glucose challenge (IVGTT assay) [13]: significant enhancement of the insulinotropic response | IVGTT > = < Compared to 0601GIP3794 ([13]; rat, in vivo): = | Standard IVGTT assay IV infusion (insulin AUC 0-30 min) ([13]; rat, in vivo, iv): 249 | body composition ([14]; mouse, in vivo): slight decrease in percentage body fat with an increase in body protein without a concomitant reduction in body weight

neuropeptide Y: peptide hormone of the pancreatic polypeptide family
inhibition of gastric emptying at doses of 100 μg [1]: either weakly active or inactive

CC[C@H](C)[C@H](NC(=O)[C@@H]1CCCN1C(=O)CNC(=O)[C@H](Cc1ccccc1)NC(=O)[C@H](CC(N)=O)NC(=O)[C@H](CC(N)=O)NC(=O)[C@H](CO)NC(=O)[C@H](CO)NC(=O)[C@H](Cc1c[nH]cn1)NC(=O)[C@@H](NC(=O)[C@H](CC(C)C)NC(=O)[C@H](Cc1ccccc1)NC(=O)[C@H](CC(N)=O)NC(=O)[C@H](C)NC(=O)[C@H](CC(C)C)NC(=O)[C@H](CCCNC(=N)N)NC(=O)[C@H](CCC(N)=O)NC(=O)[C@@H](NC(=O)[C@H](C)NC(=O)[C@@H]1CSSC[C@H](NC(=O)[C@@H](N)CCCCN)C(=O)N[C@@H](CC(N)=O)C(=O)N[C@@H]([C@@H](C)O)C(=O)N[C@@H](C)C(=O)N[C@@H]([C@@H](C)O)C(=O)N1)[C@@H](C)O)C(C)C)C(=O)N[C@@H](CC(C)C)C(=O)N1CCC[C@H]1C(=O)N1CCC[C@H]1C(=O)N[C@H](C(=O)N[C@@H](CC(N)=O)C(=O)N[C@H](C(=O)NCC(=O)N[C@@H](CO)C(=O)N[C@@H](CC(N)=O)C(=O)N[C@H](C(=O)N[C@@H](Cc1ccc(O)cc1)C(N)=O)[C@@H](C)O)C(C)C)[C@@H](C)O [pramlintide, ^25,28,29Pro-h-amylin]
half-emptying time of the stomach [18]: approximately doubled the half-emptying time of the stomach

Source: patent US8497240B2 (priority 2006, dated 2013)
